# System: 945468-187-T-J2-PDC spheroids viability
# Assay: Anticancer human tumor 945468-187-T-J2-PDC patient-derived rectal carcinoma cell line growth inhibition [PI3K]
# Settings: spheroids with HUVEC and MSC; for IC50: curve of first compound; for viability, T/C: stronger effect = lower value
# Outline: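 Targeted small molecules plus PI3K inhibitors, half-log dose series from Cmax (default top 10 microM), were applied to heterotypic spheroids of cancer cells with HUVEC and MSCs. Viability indicated growth inhibition.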
# [1] = second compound 0.00316 µM, first compound 0.0316 µM
# [2] = second compound 0.00316 µM, first compound 0.1 µM
# [3] = second compound 0.00316 µM, first compound 0.316 µM
# [4] = second compound 0.00316 µM, first compound 1 µM
# [5] = second compound 0.00316 µM, first compound 3.16 µM
# [6] = second compound 0.00316 µM, first compound 10 µM
# [7] = second compound 0.01 µM, first compound 0.0316 µM
# [8] = second compound 0.01 µM, first compound 0.1 µM
# [9] = second compound 0.01 µM, first compound 0.316 µM
# [10] = second compound 0.01 µM, first compound 1 µM
# [11] = second compound 0.01 µM, first compound 3.16 µM
# [12] = second compound 0.01 µM, first compound 10 µM
# [13] = second compound 0.0316 µM, first compound 0.0316 µM
# [14] = second compound 0.0316 µM, first compound 0.1 µM
# [15] = second compound 0.0316 µM, first compound 0.316 µM
# [16] = second compound 0.0316 µM, first compound 1 µM
# [17] = second compound 0.0316 µM, first compound 3.16 µM
# [18] = second compound 0.0316 µM, first compound 10 µM
# [19] = second compound 0.1 µM, first compound 0.0316 µM
# [20] = second compound 0.1 µM, first compound 0.1 µM
# [21] = second compound 0.1 µM, first compound 0.316 µM
# [22] = second compound 0.1 µM, first compound 1 µM
# [23] = second compound 0.1 µM, first compound 3.16 µM
# [24] = second compound 0.1 µM, first compound 10 µM
# [25] = second compound 0.316 µM, first compound 0.0316 µM
# [26] = second compound 0.316 µM, first compound 0.1 µM
# [27] = second compound 0.316 µM, first compound 0.316 µM
# [28] = second compound 0.316 µM, first compound 1 µM
# [29] = second compound 0.316 µM, first compound 3.16 µM
# [30] = second compound 0.316 µM, first compound 10 µM
# [31] = second compound 1 µM, first compound 0.0316 µM
# [32] = second compound 1 µM, first compound 0.1 µM
# [33] = second compound 1 µM, first compound 0.316 µM
# [34] = second compound 1 µM, first compound 1 µM
# [35] = second compound 1 µM, first compound 3.16 µM
# [36] = second compound 1 µM, first compound 10 µM
# 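Also: spheroids exposed to compounds for seven days before reading.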
smiles,measurement,setting,value
C#Cc1c(F)ccc2cc(O)cc(-c3ncc4c(N5CC6CCC(C5)N6)nc(OCC56CCCN5CC(F)C6)nc4c3F)c12 (stereo unspecified) + CC(Nc1ccc2c(c1)OCCn1cc(N3C(=O)OCC3C(F)F)nc1-2)C(N)=O,IC50,second compound 0.00316 µM,> 10 µM
same,IC50,second compound 0.01 µM,> 10 µM
same,IC50,second compound 0.0316 µM,> 10 µM
same,IC50,second compound 0.1 µM,> 10 µM
same,IC50,second compound 0.316 µM,> 10 µM
same,IC50,second compound 1 µM,> 10 µM
same,"viability, T/C",[1],103%
same,"viability, T/C",[2],86.9%
same,"viability, T/C",[3],87.3%
same,"viability, T/C",[4],96.7%
same,"viability, T/C",[5],94%
same,"viability, T/C",[6],96.5%
same,"viability, T/C",[7],75.3%
same,"viability, T/C",[8],105%
same,"viability, T/C",[9],81.5%
same,"viability, T/C",[10],82.8%
same,"viability, T/C",[11],103%
same,"viability, T/C",[12],86.8%
same,"viability, T/C",[13],94.5%
same,"viability, T/C",[14],85.7%
same,"viability, T/C",[15],79.7%
same,"viability, T/C",[16],88.1%
same,"viability, T/C",[17],107%
same,"viability, T/C",[18],103%
same,"viability, T/C",[19],82.6%
same,"viability, T/C",[20],81.2%
same,"viability, T/C",[21],88.7%
same,"viability, T/C",[22],93.3%
same,"viability, T/C",[23],108%
same,"viability, T/C",[24],95.3%
same,"viability, T/C",[25],77%
same,"viability, T/C",[26],70.7%
same,"viability, T/C",[27],76.5%
same,"viability, T/C",[28],107%
same,"viability, T/C",[29],81.4%
same,"viability, T/C",[30],74.4%
same,"viability, T/C",[31],72%
same,"viability, T/C",[32],62.4%
same,"viability, T/C",[33],67.1%
same,"viability, T/C",[34],68.3%
same,"viability, T/C",[35],75.3%
same,"viability, T/C",[36],69.3%
C=CC(=O)N1CCN(c2nc(=O)n(-c3c(C)ccnc3C(C)C)c3nc(-c4c(O)cccc4F)c(F)cc23)C(C)C1 (stereo unspecified) + CC(Nc1ccc2c(c1)OCCn1cc(N3C(=O)OCC3C(F)F)nc1-2)C(N)=O,IC50,second compound 0.00316 µM,> 10 µM
same,IC50,second compound 0.01 µM,> 10 µM
same,IC50,second compound 0.0316 µM,> 10 µM
same,IC50,second compound 0.1 µM,> 10 µM
same,IC50,second compound 0.316 µM,> 10 µM
same,IC50,second compound 1 µM,> 10 µM
same,"viability, T/C",[1],117%
same,"viability, T/C",[2],108%
same,"viability, T/C",[3],114%
same,"viability, T/C",[4],85.1%
same,"viability, T/C",[5],101%
same,"viability, T/C",[6],101%
same,"viability, T/C",[7],166%
same,"viability, T/C",[8],98%
same,"viability, T/C",[9],101%
same,"viability, T/C",[10],120%
same,"viability, T/C",[11],111%
same,"viability, T/C",[12],123%
same,"viability, T/C",[13],124%
same,"viability, T/C",[14],117%
same,"viability, T/C",[15],103%
same,"viability, T/C",[16],116%
same,"viability, T/C",[17],91.5%
same,"viability, T/C",[18],83.6%
same,"viability, T/C",[19],127%
same,"viability, T/C",[20],88.1%
same,"viability, T/C",[21],87.7%
same,"viability, T/C",[22],98.4%
same,"viability, T/C",[23],96.3%
same,"viability, T/C",[24],111%
same,"viability, T/C",[25],101%
same,"viability, T/C",[26],101%
same,"viability, T/C",[27],79.7%
same,"viability, T/C",[28],110%
same,"viability, T/C",[29],95.3%
same,"viability, T/C",[30],80.1%
same,"viability, T/C",[31],89.2%
same,"viability, T/C",[32],98.1%
same,"viability, T/C",[33],81.8%
same,"viability, T/C",[34],83.4%
same,"viability, T/C",[35],81.9%
same,"viability, T/C",[36],83.7%
CC(Cn1ccc(-c2ccc(C#N)c(Cl)c2)n1)NC(=O)c1cc(C(C)O)[nH]n1 (stereo unspecified) + CC(Nc1ccc2c(c1)OCCn1cc(N3C(=O)OCC3C(F)F)nc1-2)C(N)=O,IC50,second compound 0.00316 µM,> 10 µM
same,IC50,second compound 0.01 µM,> 10 µM
same,IC50,second compound 0.0316 µM,> 10 µM
same,IC50,second compound 0.1 µM,> 10 µM
same,IC50,second compound 0.316 µM,> 10 µM
same,IC50,second compound 1 µM,> 10 µM
same,"viability, T/C",[1],98.9%
same,"viability, T/C",[2],105%
same,"viability, T/C",[3],107%
same,"viability, T/C",[4],75.7%
same,"viability, T/C",[5],106%
same,"viability, T/C",[6],110%
same,"viability, T/C",[7],108%
same,"viability, T/C",[8],85.8%
same,"viability, T/C",[9],90.5%
same,"viability, T/C",[10],96.2%
same,"viability, T/C",[11],111%
same,"viability, T/C",[12],93.6%
same,"viability, T/C",[13],100%
same,"viability, T/C",[14],82%
same,"viability, T/C",[15],88%
same,"viability, T/C",[16],92%
same,"viability, T/C",[17],91.1%
same,"viability, T/C",[18],103%
same,"viability, T/C",[19],86.2%
same,"viability, T/C",[20],82%
same,"viability, T/C",[21],99.1%
same,"viability, T/C",[22],80.8%
same,"viability, T/C",[23],101%
same,"viability, T/C",[24],81.7%
same,"viability, T/C",[25],85.2%
same,"viability, T/C",[26],73.2%
same,"viability, T/C",[27],95.2%
same,"viability, T/C",[28],91.4%
same,"viability, T/C",[29],82.7%
same,"viability, T/C",[30],82.8%
same,"viability, T/C",[31],76.2%
same,"viability, T/C",[32],74.8%
same,"viability, T/C",[33],68.9%
same,"viability, T/C",[34],63.6%
same,"viability, T/C",[35],72.3%
same,"viability, T/C",[36],71.4%

# — PubChem BioAssay AID1963972 (Molecular Pharmacology Branch, DTP, NCI, 2024)
